Measurements from patent publication US20250195432A1, “METHODS FOR PREPARING AND CHARACTERIZING ZEIN-FUCOIDAN CONJUGATED NANO-LIPOSOME FOR PHYTOL ENCAPSULATION” (Zhejiang Academy of Forestry, priority 2023, published 2025).

What was measured:
[1] = system: HepG2 cells; test: MDA content in HepG2 cells with TBHP-induced oxidative damage; type: cell-based, human; conditions: HepG2, TBHP (10 μg/mL)
Protocol: (§1) • culturing the digested HepG2 cells for 24 hours and then adding […] concentrations of PHY, P-ZF, P-NL, and P-NL-ZF to the plate for another 24 hours of incubation; […]; measuring a cell survival rate, an intracellular reactive oxygen species (ROS) level, malondialdehyde (MDA) content, and superoxide dismutase (SOD) activity.
(§2) • placing the digested HepG2 cells in a culture dish and performing a treatment as in step (O); adding 10.00 μM 2′,7′-dichlorodihydrofluorescein diacetate (DCFH-DA) and incubating for 0.5 hours, followed by washing with PBS (pH 7.4); allowing intracellular esterase to cleave the DCFH-DA, which is then oxidized to highly fluorescent dichlorofluorescein in the presence of ROS; measuring a fluorescence intensity of the 96-well plate using a multifunctional microplate reader at an excitation wavelength of 485 nm and an emission wavelength of 528 nm, expressing the intracellular ROS level as a percentage of the negative control group; • assessing the SOD activity and the MDA content by culturing the digested HepG2 cells for 24 hours; after the treatment as in step (O), adding 300 μL of lysis buffer and incubating on ice for 30 minutes; centrifuging at 11,000×g for 5 minutes at 4° C. and collecting a resulting supernatant; and quantifying the SOD activity and the MDA content according to instructions of SOD and MDA assay kits; and […]

[2] = system: HepG2 cells; test: Intracellular ROS level (DCFH-DA) in HepG2 cells with TBHP-induced oxidative damage; type: cell-based, human; conditions: for ROS level (percentage of the negative control group): HepG2, pre-treatment 100 μg/mL phytol 24 h, then TBHP (10 μg/mL)
Protocol: • […], P-ZF, P-NL, and P-NL-ZF to the plate for another 24 hours of incubation; […]; measuring a cell survival rate, an intracellular reactive oxygen species (ROS) level, malondialdehyde (MDA) content, and superoxide dismutase (SOD) activity.
• placing the digested HepG2 cells in a culture dish and performing a treatment as in step (O); adding 10.00 μM 2′,7′-dichlorodihydrofluorescein diacetate (DCFH-DA) and incubating for 0.5 hours, followed by washing with PBS (pH 7.4); allowing intracellular esterase to cleave the DCFH-DA, which is then oxidized to highly fluorescent dichlorofluorescein in the presence of ROS; measuring a fluorescence intensity of the 96-well plate using a multifunctional microplate reader at an excitation wavelength of 485 nm and an emission wavelength of 528 nm, expressing the intracellular ROS level as a percentage of the negative control group; • assessing the SOD activity and the MDA content by culturing the digested HepG2 cells for 24 hours; after the treatment as in step (O), adding 300 μL of lysis buffer and incubating on ice for 30 minutes; centrifuging at 11,000×g for 5 minutes at 4° C. and collecting a resulting supernatant; and quantifying the SOD activity and the MDA content according to instructions of SOD and MDA assay kits; and
• seeding the digested cells at a density of 3×10^5 cells per well into a 6-well plate and incubating for 24 hours; after incubation, aspirating a culture medium and continuing with the grouping and treatment as in step (0); after 24 hours, replacing an original solution with 25 μM DCFH-DA solution and incubating for 60 minutes; washing the cells twice with PBS to remove unabsorbed probes; observing a fluorescence generated within the cells by placing the 6-well plate under a fluorescence microscope equipped with an FITC fluorescence channel.
HepG2 cells, after digestion, were seeded at a density of 1×10^5 cells/well in a 96-well cell culture plate and were placed in a cell culture incubator. […]

[3] = system: HepG2 cells; test: TBHP-induced oxidative damage concentration, cell viability by CCK-8; type: cell-based, human; conditions: HepG2, TBHP 10 μg/mL, 24 hours
Protocol: HepG2 cells, after digestion, were seeded at a density of 1×10^5 cells/well in a 96-well cell culture plate and were incubated in a cell culture incubator. […] After 24 hours of incubation, the culture medium was removed, and the working solutions of TBHP at different concentrations were added to the wells, followed by an additional 24 hours of incubation. After the incubation period, the vitality of the HepG2 cells was assessed using the CCK-8 method, as detailed in section 2.6.4.

[4] = system: HepG2 cells; test: SOD activity in HepG2 cells with TBHP-induced oxidative damage; type: cell-based, human; conditions: HepG2, TBHP (10 μg/mL)
Protocol: as §1, §2

[5] = Photostability under UV light, phytol retention by GC-MS; type: physicochemical; conditions: after 16 hours of UV exposure; free phytol in ethanol
Protocol: • exposing a sample to ultraviolet (UV) light for various irradiation durations: […], 90 minutes, 120 minutes, 150 minutes, 180 minutes, 210 minutes, 240 minutes, 270 minutes, […]; and determining retention of phytol content using GC-MS.
To assess the photostability of phytol loaded in nanoparticles (P-ZF, P-NL, and P-NL-ZF) as well as free phytol dissolved in ethanol, samples were irradiated under UV light for various durations: […], 90 minutes, 120 minutes, 150 minutes, 180 minutes, 210 minutes, 240 minutes, 270 minutes, […] The content of retained phytol was determined using GC-MS as described in Section 2.5.2. The calculation formula for retention rate is given as follows: […]

[6] = Hydroxyl radical scavenging activity; type: biochemical; conditions: 37° C., 30 minutes, absorbance 536 nm
Protocol: • mixing 1.00 mL of the nanoliposomes with 1.00 mL of 9.00 mmol/L salicylic acid ethanol solution, 1.00 mL of 9.00 mmol/L FeCl2, and 1.00 mL of 8.80 mmol/L H2O2; incubating a resulting mixture in the dark at 37° C. for 30 minutes; measuring an absorbance of a reaction mixture at 536 nm using a multifunctional microplate reader and calculating a hydroxyl radical scavenging rate;
A sample of the nanoliposome (1.00 mL) was mixed with an ethanol solution of salicylic acid (1.00 mL, 9.00 mmol/L), FeCl2 (1.00 mL, 9.00 mmol/L), and H2O2(1.00 mL, 8.80 mmol/L) and incubated in the dark at 37° C. for 30 minutes. The absorbance of the reaction mixture was measured at 536 nm using a multifunctional microplate reader (Varioskan Flash, Thermo Fisher Scientific, Massachusetts, USA). The hydroxyl radical scavenging rate was calculated using the following formula: […]

## CC(C)(C)OO [TBHP, Tert-Butyl Hydrogen Peroxide]
[1]
  MDA level (lipid peroxidation): significant increase in MDA
[2]
  ROS level (percentage of the negative control group): 328.42%
[3]
  cell viability: 65.67%
[4]
  SOD activity: 8.43 U/mg protein

## (2E,3,7R,11R,15)-tetramethyl-hexadecen-1-ol [PHY]
[2]; HepG2, TBHP (10 μg/mL)
  reduction of ROS level compared to the positive control (328.16%): 97.44%
[2]
  ROS level (percentage of the negative control group): 230.72%
[5]
  retention rate of phytol under UV: 1.21%
[6]
  scavenging capability against •OH radicals: 40%
[4]
  SOD activity: 11.61 U/mg protein
